Results published in patent US4101649A, “Hydrosoluble agents having non specific immunodepressive properties” (Agence Nationale de Valorisation de la Recherche (ANVAR), priority 1975, dated 1978).
Where “and” joins values, the source holds several entries; their conditions need not be identical. Equal values may be shown once.

What was measured:
antiovalbumin antibodies = assay: Rate of antiovalbumin antibodies in guinea pigs three weeks after injection of ovalbumin in FIA emulsion; type: in vivo, Hartley guinea pigs
Method: In the two series of tests the results of which are indicated hereafter, the influence of the active principles of the drugs according to the invention on the antiovalbumin antibodies rate was studied under the following conditions.
(§1) Female Hartley guinea pigs of 300-350 g. were given in the plantar pad of each of the two rear paws an emulsion composed of equal parts of incomplete Freund's adjuvant and a physiological solution containing ovalbumin (5 mg/guinea pig) and the preparations to be tested. The Freund's incomplete adjuvant (FIA), the Freund's complete adjuvant (FCA) marketed by the DIFCO Company and N-acetylmuramyl-L-alanyl-D-isoglutamine were used as controls.
The rate of antibodies with respect to ovalbumin was determined three weeks later after the injection in the conditions which were indicated in the French patent Nr 71 41610 of Nov. 19, 1971; it is expressed in μg of the antigen-antibody precipitate per ml of serum at the point of equivalence.

[1] = test system: delayed hypersensivity to ovalbumin; assay: Delayed hypersensitivity to ovalbumin (cutaneous reaction) in guinea pigs; type: in vivo, Hartley guinea pigs; conditions: 4 weeks after injection, 48 hours after 50 μg ovalbumine/animal sub-cutaneous
Method: as §1
In a second series of tests, the delayed hypersensivity to ovalbumin which produces a cutaneous reaction was measured four weeks after the injection; it is expressed by the diameter in millimetres of the erythema (E), of the induration (I) or of the necrosis (N), 48 hours after the sub-cutaneous injection of 50 micrograms of ovalbumin.

[2] = Table I, first series, 25 μg/animal + FIA, guinea pigs, 3 weeks after injection
[3] = Table II, second series, 25 μg/animal
[4] = Table II, second series, 100 μg/animal

SMILES | Antiovalbumin antibodies rates compared with animals which received Freund's incomplete adjuvant only (in words) (antiovalbumin antibodies; Table I) | Rate of antiovalbumin antibodies (individual animals) (antiovalbumin antibodies; [2]) | Rate of antiovalbumin antibodies, mean values (antiovalbumin antibodies; [2]) [μg proteins / ml serum] | Rate of antiovalbumin antibodies (individual animals) (antiovalbumin antibodies; [3]) | Rate of antiovalbumin antibodies, mean values (antiovalbumin antibodies; [3]) [μg proteins/ ml serum] | Rate of antiovalbumin antibodies (individual animals) (antiovalbumin antibodies; [4]) | Rate of antiovalbumin antibodies, mean values (antiovalbumin antibodies; [4]) [μg proteins/ ml serum] | Inhibition of the adjuvant action of Mur-N-Ac-L-Ala-D-Glu-α-NH2 when administered simultaneously (in words) (antiovalbumin antibodies; Table II, tests 5 and 6 versus test 3) | Delayed hypersensibility, cutaneous reaction (type letter not given) ([1]; 25 μg/animal) [millimetres] | Delayed hypersensibility, diameter of the induration (I) ([1]; 25 μg/animal) [millimetres] | Delayed hypersensibility, cutaneous reaction (type letter not given) ([1]; 100 μg/animal) [millimetres] | Delayed hypersensibility, diameter of the erythema (E) ([1]; 100 μg/animal) [millimetres]
CC(=O)NC1C(O)OC(CO)C(O)C1OC(C)C(=O)NC(C)C(=O)NC(CCC(=O)O)C(N)=O [Mur-N-Ac-D-Ala-D-Glu-,α-NH2, 2-(2-acetamido-2-deoxy-3-O-D-glucopyranose)-D-propionyl-D-alanyl-D-isoglutamine] | much lower | 200 μg proteins / ml serum and 800 μg proteins / ml serum and 900 μg proteins / ml serum and 1300 μg proteins / ml serum and 1900 μg proteins / ml serum and 1500 μg proteins / ml serum | 1068 | 1720 μg proteins/ ml serum and 660 μg proteins/ ml serum and 3600 μg proteins/ ml serum and 1800 μg proteins/ ml serum and 1760 μg proteins/ ml serum | 1890 | 950 μg proteins/ ml serum and 1000 μg proteins/ ml serum and 1200 μg proteins/ ml serum | 1050 | strongly inhibits the adjuvant action | 0 | 12 | 0 | 5
CC(=O)N[C@H]1C(O)O[C@H](CO)[C@@H](O)[C@@H]1O[C@H](C)C(=O)N[C@@H](C)C(=O)N[C@@H](CCC(=O)O)C(N)=O (stereo partly drawn) [Mur-N-Ac-L-Ala-L-Glu-,α-NH2, 2-(2-acetamido-2-deoxy-3-D-glucopyranosyl)-D-propionyl-L-Ala-L-Glu-α-NH2] | much lower | 1140 μg proteins / ml serum and 3400 μg proteins / ml serum and 4200 μg proteins / ml serum and 1700 μg proteins / ml serum and 800 μg proteins / ml serum and 700 μg proteins / ml serum and 2800 μg proteins / ml serum | 2104 | – | – | – | – | – | – | – | – | –
